Assay results: patent publication US11214563B2 (JANSSEN PHARMACEUTICA NV, priority 2019, dated 2022)

How the values were obtained:
[1] = target: human GluN1/GluN2B NMDA receptors (Homo sapiens (Human), UniProt Q05586+Q13224); assay: Cell-based calcium flux (FLIPR) assay on cloned human NR1/NR2B ion channels expressed in mammalian cells; conditions: standard assay, glutamate ~EC40, 10 μM glycine
Procedure: (§1) Effects of Test Articles on Cloned Human NR1/NR2B Ion Channels Expressed in Mammalian Cells
(§2) NMDA receptors are ion channels that are highly permeable to Ca^2+ ions, rendering it possible to monitor NMDA receptor function using cell-based calcium flux assay. In this assay, co-agonists glutamate and glycine are added to cells heterologously expressing human GluN1/GluN2B NMDA receptors to initiate cellular Ca^2+ influx. The time course of the changes in intracellular calcium is measured using a fluorescent dye and a FLIPR (Fluorometric Imaging Plate Reader) device.
(§3) Twenty four hours before measurements, the expression of the NMDA receptors in the stable cell line is induced with Tet-On inducible system in the presence of a non-selective NMDA receptor blocker. On the day of the experiment, cell culture media is carefully washed and the cells are loaded with Calcium 5 Dye Kit (Molecular Devices) in dye loading buffer containing 137 mM NaCl, 4 mM KCl, 2 mM CaCl2), 0.5 mM MgCl2(standard assay) or 1.5 mM MgCl2 (HTS assay), 10 mM HEPES and 5 mM D-glucose; pH 7.4. After 1 h incubation at the room temperature, the dye is washed away with the assay buffer (137 mM NaCl (standard assay) or 150 mM (HTS assay), 4 mM KCl (standard assay) or 3 mM (HTS assay), 2 mM CaCl2), 0.01 mM EDTA, 10 mM HEPES and 5 mM D-glucose; pH 7.4) In the FLIPR TETRA reader, various concentrations of the test compounds are added to the cells for 5 min while fluorescence is monitored to detect potential agonist activity. Next, co-agonists, glutamate and glycine are added for another 5 minutes. The concentration of glutamate corresponding to ˜EC40 (standard assay) or EC40 (HTS assay) is used to maximize the assay's signal window and ability to detect NMDA receptor antagonists and negative allosteric modulators. A saturating concentration (10 μM) of glycine is also present in the assay. A non-selective NMDA receptor antagonist, (+)MK-801 is used as a positive control for antagonist activity. The fluorescent signal in the presence of test compounds is quantified and normalized to the signal defined by the appropriate control wells.

[2] = target: human GluN1/GluN2B NMDA receptors (Homo sapiens (Human), UniProt Q13224); assay: as above; conditions: standard assay, glutamate ~EC40, 10 μM glycine
Sequence of human GluN1/GluN2B NMDA receptors (Homo sapiens (Human), UniProt Q13224) (Q13224 27-1484, other chains not shown): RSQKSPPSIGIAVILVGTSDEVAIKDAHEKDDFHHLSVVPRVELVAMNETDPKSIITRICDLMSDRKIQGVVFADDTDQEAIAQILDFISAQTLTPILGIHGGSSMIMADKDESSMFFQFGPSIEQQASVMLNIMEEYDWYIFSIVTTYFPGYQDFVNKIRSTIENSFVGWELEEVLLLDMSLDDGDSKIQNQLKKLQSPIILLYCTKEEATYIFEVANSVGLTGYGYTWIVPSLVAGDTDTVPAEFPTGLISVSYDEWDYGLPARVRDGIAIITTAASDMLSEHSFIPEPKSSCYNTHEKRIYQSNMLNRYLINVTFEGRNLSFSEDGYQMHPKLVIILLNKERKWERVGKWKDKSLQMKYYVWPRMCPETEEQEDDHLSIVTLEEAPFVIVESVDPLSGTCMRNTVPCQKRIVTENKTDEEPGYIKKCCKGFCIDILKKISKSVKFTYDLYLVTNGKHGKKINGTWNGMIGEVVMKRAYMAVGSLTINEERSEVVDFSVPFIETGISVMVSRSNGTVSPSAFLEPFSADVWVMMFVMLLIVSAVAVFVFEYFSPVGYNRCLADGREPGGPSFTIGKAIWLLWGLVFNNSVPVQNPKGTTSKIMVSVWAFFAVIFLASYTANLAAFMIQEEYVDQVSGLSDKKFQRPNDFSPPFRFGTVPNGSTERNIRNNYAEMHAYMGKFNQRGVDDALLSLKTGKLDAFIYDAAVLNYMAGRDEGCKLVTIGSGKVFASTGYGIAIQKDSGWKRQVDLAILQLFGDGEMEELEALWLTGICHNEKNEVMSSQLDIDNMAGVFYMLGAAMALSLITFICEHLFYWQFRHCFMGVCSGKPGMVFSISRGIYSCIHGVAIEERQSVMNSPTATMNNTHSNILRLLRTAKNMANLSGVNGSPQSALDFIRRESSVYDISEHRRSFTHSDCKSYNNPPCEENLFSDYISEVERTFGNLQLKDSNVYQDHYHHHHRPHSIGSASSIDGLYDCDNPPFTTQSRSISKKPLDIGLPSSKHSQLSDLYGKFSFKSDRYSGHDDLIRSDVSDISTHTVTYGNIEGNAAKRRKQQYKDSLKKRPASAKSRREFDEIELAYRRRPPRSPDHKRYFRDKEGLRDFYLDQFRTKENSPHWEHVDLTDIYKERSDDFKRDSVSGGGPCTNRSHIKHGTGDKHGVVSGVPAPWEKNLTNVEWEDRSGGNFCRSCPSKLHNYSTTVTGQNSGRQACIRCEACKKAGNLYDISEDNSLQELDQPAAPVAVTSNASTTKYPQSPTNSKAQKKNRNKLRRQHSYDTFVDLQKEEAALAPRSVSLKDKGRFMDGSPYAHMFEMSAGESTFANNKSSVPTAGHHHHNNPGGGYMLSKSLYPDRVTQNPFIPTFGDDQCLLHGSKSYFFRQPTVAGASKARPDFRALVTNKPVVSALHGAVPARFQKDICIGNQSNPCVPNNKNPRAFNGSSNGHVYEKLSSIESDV
Procedure: as §1, §2, §3

Sequence of human GluN1/GluN2B NMDA receptors (Homo sapiens (Human), UniProt Q05586+Q13224) (Q13224 27-1484, other chains not shown): as above

| IC50 [1] | IC50 [2] | Structure (SMILES) |
| --- | --- | --- |
| 22 nM |  | CCC(=O)Cn1ncc2ncc(-c3ccc(F)c(C(F)F)c3)nc21 [Example 1, 1-[6-[3-(Difluoromethyl)-4-fluoro-phenyl]pyrazolo[3,4-b]pyrazin-1-yl]butan-2-one] |
| 81 nM |  | O=C(Cn1ncc2ncc(-c3ccc(Cl)c(OC(F)F)c3)nc21)C1CC1 [Example 2, 2-[6-[4-Chloro-3-(difluoromethoxy)phenyl]pyrazolo[3,4-b]pyrazin-1-yl]-1-cyclopropyl-ethanone] |
| 581 nM |  | CN(C)C(=O)Cn1ncc2ncc(-c3ccc(C(F)(F)F)s3)nc21 [Example 3, N,N-Dimethyl-2-[6-[5-(trifluoromethyl)-2-thienyl]pyrazolo[3,4-b]pyrazin-1-yl]acetamide] |
| 410 nM |  | Cc1cccc(-c2cnc3cnn(CC(=O)N(C)C)c3n2)c1 [Example 4, N,N-Dimethyl-2-[6-(m-tolyl)pyrazolo[3,4-b]pyrazin-1-yl]acetamide] |
| 827 nM |  | CN(C)C(=O)Cn1ncc2ncc(-c3ccc(Cl)c(F)c3)nc21 [Example 5, 2-[6-(4-Chloro-3-fluoro-phenyl)pyrazolo[3,4-b]pyrazin-1-yl]-N,N-dimethyl-acetamide] |
| 916 nM |  | Cc1ccc(-c2cnc3cnn(CC(=O)N(C)C)c3n2)cc1F [Example 6, 2-[6-(3-Fluoro-4-methyl-phenyl)pyrazolo[3,4-b]pyrazin-1-yl]-N,N-dimethyl-acetamide] |
| 59 nM |  | CN(C)C(=O)Cn1nc(F)c2ncc(-c3ccc(F)c(C(F)F)c3)nc21 [Example 11, 2-[6-[3-(Difluoromethyl)-4-fluoro-phenyl]-3-fluoro-pyrazolo[3,4-b]pyrazin-1-yl]-N,N-dimethyl-acetamide] |
| 72 nM |  | CN(C)C(=O)Cn1ncc2ncc(-c3ccc(F)c(OC(F)F)c3)nc21 [Example 16, 2-[6-[3-(Difluoromethoxy)-4-fluoro-phenyl]pyrazolo[3,4-b]pyrazin-1-yl]-N,N-dimethyl-acetamide] |
| 64 nM |  | CN(C)C(=O)Cn1ncc2ncc(-c3ccc(Cl)c(OC(F)F)c3)nc21 [Example 18, 2-[6-[4-Chloro-3-(difluoromethoxy)phenyl]pyrazolo[3,4-b]pyrazin-1-yl]-N,N-dimethyl-acetamide] |
| 907 nM |  | Cc1c(F)cc(-c2cnc3cnn(CC(=O)N(C)C)c3n2)cc1F [Example 20, 2-[6-(3,5-Difluoro-4-methyl-phenyl)pyrazolo[3,4-b]pyrazin-1-yl]-N,N-dimethyl-acetamide] |
| 489 nM |  | CN(C)C(=O)Cn1ncc2ncc(-c3cc(F)c(F)c(F)c3)nc21 [Example 22, N,N-Dimethyl-2-[6-(3,4,5-trifluorophenyl)pyrazolo[3,4-b]pyrazin-1-yl]acetamide] |
| 126 nM |  | CC(F)(F)c1cc(-c2cnc3cnn(CC(=O)N4CCC4)c3n2)ccc1F [Example 27, 1-(Azetidin-1-yl)-2-[6-[3-(1,1-difluoroethyl)-4-fluoro-phenyl]pyrazolo[3,4-b]pyrazin-1-yl]ethanone] |
| 122 nM |  | CC1CN(C(=O)Cn2ncc3ncc(-c4ccc(F)c(C(F)F)c4)nc32)C1 [Example 30, 2-[6-[3-(Difluoromethyl)-4-fluoro-phenyl]pyrazolo[3,4-b]pyrazin-1-yl]-1-(3-methylazetidin-1-yl)ethanone] |
|  | 251 nM | CC1CN(C(=O)Cn2ncc3ncc(-c4ccc(F)c(OC(F)F)c4)nc32)C1 [Example 36, 2-[6-[3-(Difluoromethoxy)-4-fluoro-phenyl]pyrazolo[3,4-b]pyrazin-1-yl]-1-(3-methylazetidin-1-yl)ethanone] |
|  | 1060 nM | CC(F)(F)c1cc(-c2cnc3cnn(CC(=O)N4CCOCC4)c3n2)ccc1Cl [Example 38, 2-[6-[4-Chloro-3-(1,1-difluoroethyl)phenyl]pyrazolo[3,4-b]pyrazin-1-yl]-1-morpholino-ethanone] |
|  | 162 nM | Cc1nnc(Cn2ncc3ncc(-c4ccc(F)c(C(F)F)c4)nc32)s1 [Example 39, 2-[[6-[3-(Difluoromethyl)-4-fluoro-phenyl]pyrazolo[3,4-b]pyrazin-1-yl]methyl]-5-methyl-1,3,4-thiadiazole] |
| 158 nM |  | Cc1nnc(Cn2ncc3ncc(-c4ccc(F)c(C(F)F)c4)nc32)o1 [Example 40, 2-[[6-[3-(Difluoromethyl)-4-fluoro-phenyl]pyrazolo[3,4-b]pyrazin-1-yl]methyl]-5-methyl-1,3,4-oxadiazole] |
|  | 337 nM | Cc1cc(Cn2ncc3ncc(-c4ccc(F)c(C(F)F)c4)nc32)on1 [Example 41, 5-[[6-[3-(Difluoromethyl)-4-fluoro-phenyl]pyrazolo[3,4-b]pyrazin-1-yl]methyl]-3-methyl-isoxazole] |
|  | 79 nM | Fc1cncc(Cn2ncc3ncc(-c4ccc(F)c(C(F)F)c4)nc32)c1 [Example 42, 6-[3-(Difluoromethyl)-4-fluoro-phenyl]-1-[(5-fluoro-3-pyridyl)methyl]pyrazolo[3,4-b]pyrazine] |
|  | 250 nM | Fc1ccc(-c2cnc3cnn(Cc4cncc(Cl)c4)c3n2)cc1C(F)F [Example 43, 1-[(5-Chloro-3-pyridyl)methyl]-6-[3-(difluoromethyl)-4-fluoro-phenyl]pyrazolo[3,4-b]pyrazine] |
|  | 165 nM | COc1cncc(Cn2ncc3ncc(-c4ccc(F)c(C(F)F)c4)nc32)c1 [Example 44, 6-[3-(Difluoromethyl)-4-fluoro-phenyl]-1-[(5-methoxy-3-pyridyl)methyl]pyrazolo[3,4-b]pyrazine] |
| 285 nM |  | N#Cc1cncc(Cn2ncc3ncc(-c4ccc(F)c(C(F)F)c4)nc32)c1 [Example 45, 5-[[6-[3-(Difluoromethyl)-4-fluoro-phenyl]pyrazolo[3,4-b]pyrazin-1-yl]methyl]pyridine-3-carbonitrile] |
|  | 709 nM | N#Cc1cncc(Cn2nc(F)c3ncc(-c4ccc(F)c(C(F)F)c4)nc32)c1 [Example 46, 5-[[6-[3-(Difluoromethyl)-4-fluoro-phenyl]-3-fluoro-pyrazolo[3,4-b]pyrazin-1-yl]methyl]pyridine-3-carbonitrile] |
|  | 284 nM | Fc1ccc(-c2cnc3cnn(Cc4cncc(Cl)c4)c3n2)cc1OC(F)F [Example 47, 1-[(5-Chloro-3-pyridyl)methyl]-6-[3-(difluoromethoxy)-4-fluoro-phenyl]pyrazolo[3,4-b]pyrazine] |
|  | 2810 nM | CN(C)C(=O)Cn1ncc2ncc(-c3ccc(Cl)cc3F)nc21 [Example 48, 2-(6-(4-Chloro-2-fluorophenyl)-1H-pyrazolo[3,4-b]pyrazin-1-yl)-N,N-dimethylacetamide] |
|  | 2740 nM | CN(C)C(=O)Cn1ncc2ncc(-c3ccc(OC(F)(F)F)cc3)nc21 [Example 49, N,N-Dimethyl-2-(6-(4-(trifluoromethoxy)phenyl)-1H-pyrazolo[3,4-b]pyrazin-1-yl)acetamide] |
|  | > 3000 nM | CN(C)C(=O)Cn1ncc2ncc(-c3cc(F)ccc3F)nc21 [Example 50, 2-(6-(2,5-Difluorophenyl)-1H-pyrazolo[3,4-b]pyrazin-1-yl)-N,N-dimethylacetamide] |
| > 3000 nM |  | O=C1NCC(Cn2ncc3ncc(-c4ccc(F)c(OC(F)F)c4)nc32)O1 (centres unmarked) [Example 51, 5-((6-(3-(Difluoromethoxy)-4-fluorophenyl)-1H-pyrazolo[3,4-b]pyrazin-1-yl)methyl)oxazolidin-2-one] |
|  | 3770 nM | COc1cncc(Cn2ncc3ncc(-c4ccc(F)c(OC(F)F)c4)nc32)c1 [Example 52, 6-(3-(Difluoromethoxy)-4-fluorophenyl)-1-((5-methoxypyridin-3-yl)methyl)-1H-pyrazolo[3,4-b]pyrazine] |
